From patent US20060069132A1, “Azolecarboxamide herbicides” (priority 2004, published 2006)

Columns and labels:
lambsquarters = experiment: Test B pre-/postemergence herbicide test; assay type: in vivo, Chenopodium album; conditions: for Lambsquarters plant response rating: postemergence, visual rating, scale 0 (no effect) to 100 (complete control)
In short: (§1)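 Visual rating, 0 (no effect) to 100 (complete control), versus untreated controls after 13–15 d in greenhouse. Pre- and postemergence applications (postemergence plants 2–18 cm, 1–4 leaves); flooded paddy arm at 2-leaf stage. Compounds in non-phytotoxic solvent plus surfactant.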

rice [1] = experiment: Test B pre-/postemergence herbicide test; assay type: in vivo, Oryza sativa; conditions: preemergence
In short: as §1

corn = experiment: Test B pre-/postemergence herbicide test; assay type: in vivo, Zea mays; conditions: for Corn plant response rating: postemergence, visual rating, scale 0 (no effect) to 100 (complete control)
In short: as §1

Surinam grass = experiment: Test B pre-/postemergence herbicide test; assay type: in vivo, Urochloa decumbens; conditions: for Surinam Grass plant response rating: postemergence, visual rating, scale 0 (no effect) to 100 (complete control)
In short: as §1

[2] = test system: small flower umbrella sedge; experiment: Test B flooded paddy test; assay type: in vivo, Cyperus difformis; conditions: 1000 g ai/ha, visual rating, scale 0 to 100 (0 no effect, 100 complete control), 13 to 15 days
In short: (§2)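 Greenhouse test; postemergence application to plants at 1–4 leaves (2–18 cm); paddy species at 2 leaves; evaluated visually vs controls at 13–15 days; scale 0–100 (100 = complete control).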

wild oat = experiment: Test B postemergence herbicide test; assay type: in vivo, Avena fatua; conditions: postemergence, visual rating, scale 0 (no effect) to 100 (complete control)
In short: (§3)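 Scale 0–100: zero equals no visible effect, 100 complete control, judged by eye relative to controls. Timing: 13 to 15 days in greenhouse post-treatment. Growth stage at spraying: two leaves (paddy) or one to four leaves, 2–18 cm (postemergence).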

wheat = experiment: Test B postemergence herbicide test; assay type: in vivo, Triticum aestivum; parameters: key to Wheat plant response rating: 0 = no effect, 100 = complete control; conditions: postemergence, visual rating, scale 0 (no effect) to 100 (complete control)
In short: as §3

morningglory [3] = experiment: Test A pre-/postemergence herbicide test; assay type: in vivo, Ipomoea spp.
In short: (§4)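 Greenhouse injury scoring (0–100, complete control = 100) at approximately ten days follows simultaneous pre- and postemergence application. Soil received a directed spray after seeding; seedlings of 2–10 cm at the one- to two-leaf stage were sprayed to runoff.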

redroot pigweed = experiment: Test A pre-/postemergence herbicide test; assay type: in vivo, Amaranthus retroflexus
In short: as §4

barnyardgrass [4] = experiment: Test B flooded paddy test; assay type: in vivo, Echinochloa crus-galli; conditions: 1000 g ai/ha, visual rating, scale 0 to 100 (0 no effect, 100 complete control), 13 to 15 days
In short: as §2

large crabgrass [5] = experiment: Test B pre-/postemergence herbicide test; assay type: in vivo, Digitaria sanguinalis; conditions: for Crabgrass, Large plant response rating: postemergence, visual rating, scale 0 (no effect) to 100 (complete control)
In short: as §1

barnyardgrass [6] = experiment: Test B pre-/postemergence herbicide test; assay type: in vivo, Echinochloa crus-galli; conditions: for Barnyardgrass plant response rating: postemergence, visual rating, scale 0 (no effect) to 100 (complete control)
In short: (§5)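 Greenhouse pot assay with simultaneous preemergence (treated seed) and postemergence (2–18 cm seedlings) applications of surfactant-containing, non-phytotoxic solvent formulations. Response scored visually 13–15 days later on a 0–100 scale, 100 meaning complete control.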

ducksalad = experiment: Test B flooded paddy test; assay type: in vivo, Heteranthera limosa; conditions: 1000 g ai/ha, visual rating, scale 0 to 100 (0 no effect, 100 complete control), 13 to 15 days
In short: as §2

morningglory [7] = experiment: Test B pre-/postemergence herbicide test; assay type: in vivo, Ipomoea coccinea; conditions: for Morningglory plant response rating: postemergence, visual rating, scale 0 (no effect) to 100 (complete control)
In short: as §5

giant foxtail [8] = experiment: Test B pre-/postemergence herbicide test; assay type: in vivo, Setaria faberi; conditions: for Foxtail, Giant plant response rating: postemergence, visual rating, scale 0 (no effect) to 100 (complete control)
In short: as §1

giant foxtail [9] = experiment: Test A pre-/postemergence herbicide test; assay type: in vivo, Setaria faberi
In short: as §4

large crabgrass [10] = experiment: Test A pre-/postemergence herbicide test; assay type: in vivo, Digitaria sanguinalis
In short: as §4

velvetleaf [11] = experiment: Test A pre-/postemergence herbicide test; assay type: in vivo, Abutilon theophrasti
In short: as §4

pigweed = experiment: Test B pre-/postemergence herbicide test; assay type: in vivo, Amaranthus retroflexus; conditions: for Pigweed plant response rating: postemergence, visual rating, scale 0 (no effect) to 100 (complete control)
In short: as §1

barnyardgrass [12] = experiment: Test A pre-/postemergence herbicide test; assay type: in vivo, Echinochloa crus-galli
In short: as §4

velvetleaf [13] = experiment: Test B pre-/postemergence herbicide test; assay type: in vivo, Abutilon theophrasti; conditions: for Velvetleaf plant response rating: postemergence, visual rating, scale 0 (no effect) to 100 (complete control)
In short: as §1

cocklebur = experiment: Test B pre-/postemergence herbicide test; assay type: in vivo, Xanthium strumarium; conditions: for Cocklebur plant response rating: postemergence, visual rating, scale 0 (no effect) to 100 (complete control)
In short: as §5

blackgrass = experiment: Test B postemergence herbicide test; assay type: in vivo, Alopecurus myosuroides; conditions: postemergence, visual rating, scale 0 (no effect) to 100 (complete control)
In short: as §2

rice [14] = experiment: Test B flooded paddy test; assay type: in vivo, Oryza sativa; conditions: 1000 g ai/ha, visual rating, scale 0 to 100 (0 no effect, 100 complete control), 13 to 15 days
In short: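 Read-out: visual comparison with controls, scored 0 to 100, where 100 means complete control and 0 no effect. Formulated chemicals were applied postemergence to plants 2–18 cm tall (1- to 4-leaf), or to flooded-paddy plants at the 2-leaf stage, then held 13 to 15 days under glass.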

[15] = 125 g ai/ha, 0 = no effect, 100 = complete control, preemergence
[16] = 500 g ai/ha, visual rating 0-100, 0 no effect, 100 complete control, preemergence
[17] = Postemergence, 500 g ai/ha, 0 to 100 scale, 0 no effect, 100 complete control
[18] = Postemergence, 2000 g ai/ha, 0 to 100 scale, 0 no effect, 100 complete control
[19] = Preemergence, 2000 g ai/ha, visual rating, 0 to 100 scale (0 no effect, 100 complete control)
[20] = preemergence, 500 g ai/ha, visual injury, 0 to 100 scale (0 no effect, 100 complete control)

CCOc1cccc(NC(=O)c2cn(C(C)(C)C)nc2C)c1 [Compound 190]
Lambsquarters plant response rating (0 to 100 scale) (lambsquarters; [15]): 0
Plant response rating, Lambsquarters (lambsquarters; [16]): 50
Lambsquarters plant response rating (lambsquarters; 125 g ai/ha): 30
Lambsquarters plant response rating (lambsquarters; 500 g ai/ha): 80
Rice plant response rating (0 to 100 scale) (rice [1]; 125 g ai/ha, 0 = no effect, 100 = complete control): 0
Plant response rating, Rice (rice [1]; 500 g ai/ha, visual rating 0-100, 0 no effect, 100 complete control): 30
Corn plant response rating (0 to 100 scale) (corn; [15]): 0
Plant response rating, Corn (corn; [16]): 0
Corn plant response rating (corn; 125 g ai/ha): 10
Corn plant response rating (corn; 500 g ai/ha): 10
Surinam Grass plant response rating (0 to 100 scale) (Surinam grass; [15]): 0
Plant response rating, Surinam Grass (Surinam grass; [16]): 10
Surinam Grass plant response rating (Surinam grass; 125 g ai/ha): 10
Surinam Grass plant response rating (Surinam grass; 500 g ai/ha): 20
Sedge, Umbrella plant response rating [2]: 60
Oat, Wild plant response rating (wild oat; 125 g ai/ha): 10
Oat, Wild plant response rating (wild oat; 500 g ai/ha): 20
Wheat plant response rating (wheat; 125 g ai/ha): 0
Wheat plant response rating (wheat; 500 g ai/ha): 0
Morningglory plant response rating (morningglory [3]; [17]): 10
Plant response rating, Morningglory (morningglory [3]; [18]): 25
Morningglory plant response rating (morningglory [3]; [19]): 25
Morningglory plant response rating (morningglory [3]; [20]): 10
Pigweed plant response rating (redroot pigweed; [17]): 10
Plant response rating, Pigweed (redroot pigweed; [18]): 20
Pigweed plant response rating (redroot pigweed; [19]): 85
Pigweed plant response rating (redroot pigweed; [20]): 25
Barnyardgrass plant response rating (barnyardgrass [4]): 20
Crabgrass, Large plant response rating (0 to 100 scale) (large crabgrass [5]; [15]): 30
Plant response rating, Crabgrass, Large (large crabgrass [5]; [16]): 80
Crabgrass, Large plant response rating (large crabgrass [5]; 125 g ai/ha): 10
Crabgrass, Large plant response rating (large crabgrass [5]; 500 g ai/ha): 20
Barnyardgrass plant response rating (0 to 100 scale) (barnyardgrass [6]; [15]): 0
Plant response rating, Barnyardgrass (barnyardgrass [6]; [16]): 30
Barnyardgrass plant response rating (barnyardgrass [6]; 125 g ai/ha): 0
Barnyardgrass plant response rating (barnyardgrass [6]; 500 g ai/ha): 10
Ducksalad plant response rating (ducksalad): 60
Morningglory plant response rating (0 to 100 scale) (morningglory [7]; [15]): 0
Plant response rating, Morningglory (morningglory [7]; [16]): 0
Morningglory plant response rating (morningglory [7]; 125 g ai/ha): 50
Morningglory plant response rating (morningglory [7]; 500 g ai/ha): 90
Foxtail, Giant plant response rating (0 to 100 scale) (giant foxtail [8]; [15]): 0
Plant response rating, Foxtail, Giant (giant foxtail [8]; [16]): 10
Foxtail, Giant plant response rating (giant foxtail [8]; 125 g ai/ha): 10
Foxtail, Giant plant response rating (giant foxtail [8]; 500 g ai/ha): 10
Foxtail, Giant plant response rating (giant foxtail [9]; [17]): 0
Plant response rating, Foxtail, Giant (giant foxtail [9]; [18]): 0
Foxtail, Giant plant response rating (giant foxtail [9]; [19]): 10
Foxtail, Giant plant response rating (giant foxtail [9]; [20]): 0
Crabgrass, Large plant response rating (large crabgrass [10]; [17]): 10
Plant response rating, Crabgrass, Large (large crabgrass [10]; [18]): 15
Crabgrass, Large plant response rating (large crabgrass [10]; [19]): 70
Crabgrass, Large plant response rating (large crabgrass [10]; [20]): 40
Velvetleaf plant response rating (velvetleaf [11]; [17]): 0
Plant response rating, Velvetleaf (velvetleaf [11]; [18]): 15
Velvetleaf plant response rating (velvetleaf [11]; [19]): 15
Velvetleaf plant response rating (velvetleaf [11]; [20]): 0
Pigweed plant response rating (0 to 100 scale) (pigweed; [15]): 30
Plant response rating, Pigweed (pigweed; [16]): 90
Pigweed plant response rating (pigweed; 125 g ai/ha): 30
Pigweed plant response rating (pigweed; 500 g ai/ha): 70
Barnyardgrass plant response rating (barnyardgrass [12]; [17]): 0
Plant response rating, Barnyardgrass (barnyardgrass [12]; [18]): 0
Barnyardgrass plant response rating (barnyardgrass [12]; [19]): 40
Barnyardgrass plant response rating (barnyardgrass [12]; [20]): 20
Velvetleaf plant response rating (0 to 100 scale) (velvetleaf [13]; [15]): 0
Plant response rating, Velvetleaf (velvetleaf [13]; [16]): 10
Velvetleaf plant response rating (velvetleaf [13]; 125 g ai/ha): 20
Velvetleaf plant response rating (velvetleaf [13]; 500 g ai/ha): 40
Cocklebur plant response rating (0 to 100 scale) (cocklebur; [15]): 0
Plant response rating, Cocklebur (cocklebur; [16]): 0
Cocklebur plant response rating (cocklebur; 125 g ai/ha): 0
Cocklebur plant response rating (cocklebur; 500 g ai/ha): 10
Blackgrass plant response rating (blackgrass; 125 g ai/ha): 0
Blackgrass plant response rating (blackgrass; 500 g ai/ha): 0
Rice plant response rating (rice [14]): 0
